Test results as given in PubChem BioAssay (NCI).
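Five compound concentrations were applied to cells in 96-well plates for 48 hours; endpoints were derived by simple linear interpolation of the resulting dose-response curve. TGI is the concentration that stops growth completely.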

How the values were obtained:
Test in all cases: growth of human tumour cells (NCI), 48 h
786-0 renal = tested on: 786-0 renal
A498 renal = tested on: A498 renal
A549 NSCLC = tested on: A549 NSCLC
ACHN renal = tested on: ACHN renal
CCRF-CEM leukemia = tested on: CCRF-CEM leukemia
COLO 205 colon = tested on: COLO 205 colon
DLD-1 colon = tested on: DLD-1 colon
DMS 114 small cell lung = tested on: DMS 114 small cell lung
DMS 273 small cell lung = tested on: DMS 273 small cell lung
EKVX NSCLC = tested on: EKVX NSCLC
HCC-2998 colon = tested on: HCC-2998 colon
HCT-116 colon = tested on: HCT-116 colon
HCT-15 colon = tested on: HCT-15 colon
HL-60(TB) leukemia = tested on: HL-60(TB) leukemia
HOP-18 NSCLC = tested on: HOP-18 NSCLC
HOP-92 NSCLC = tested on: HOP-92 NSCLC
HT29 colon = tested on: HT29 colon
IGROV1 ovarian = tested on: IGROV1 ovarian
K-562 leukemia = tested on: K-562 leukemia
KM12 colon = tested on: KM12 colon
KM20L2 colon = tested on: KM20L2 colon
LOX IMVI melanoma = tested on: LOX IMVI melanoma
LXFL 529 NSCLC = tested on: LXFL 529 NSCLC
M14 melanoma = tested on: M14 melanoma
M19-MEL melanoma = tested on: M19-MEL melanoma
MALME-3M melanoma = tested on: MALME-3M melanoma
MOLT-4 leukemia = tested on: MOLT-4 leukemia
NCI-H23 lung = tested on: NCI-H23 lung
NCI-H460 lung = tested on: NCI-H460 lung
NCI-H522 lung = tested on: NCI-H522 lung
OVCAR-3 ovarian = tested on: OVCAR-3 ovarian
OVCAR-5 ovarian = tested on: OVCAR-5 ovarian
OVCAR-8 ovarian = tested on: OVCAR-8 ovarian
RPMI-8226 leukemia = tested on: RPMI-8226 leukemia
RXF 393 renal = tested on: RXF 393 renal
RXF-631 renal = tested on: RXF-631 renal
SF-268 CNS = tested on: SF-268 CNS
SF-295 CNS = tested on: SF-295 CNS
SF-539 CNS = tested on: SF-539 CNS
SK-MEL-2 melanoma = tested on: SK-MEL-2 melanoma
SK-MEL-28 melanoma = tested on: SK-MEL-28 melanoma
SK-MEL-5 melanoma = tested on: SK-MEL-5 melanoma
SK-OV-3 ovarian = tested on: SK-OV-3 ovarian
SN12C renal = tested on: SN12C renal
SNB-19 CNS = tested on: SNB-19 CNS
SNB-75 CNS = tested on: SNB-75 CNS
SNB-78 CNS = tested on: SNB-78 CNS
SR leukemia = tested on: SR leukemia
SW-620 colon = tested on: SW-620 colon
TK-10 renal = tested on: TK-10 renal
U251 CNS = tested on: U251 CNS
UACC-257 melanoma = tested on: UACC-257 melanoma
UACC-62 melanoma = tested on: UACC-62 melanoma
UO-31 renal = tested on: UO-31 renal
XF 498 CNS = tested on: XF 498 CNS
CAKI-1 renal = tested on: CAKI-1 renal
HOP-62 NSCLC = tested on: HOP-62 NSCLC
NCI-H226 lung = tested on: NCI-H226 lung
OVCAR-4 ovarian = tested on: OVCAR-4 ovarian

## C/C=C(\CCOS(=O)(=O)c1ccc(C)cc1)[Si](C)(C)C
786-0 renal
  TGI: > 100 µM
A498 renal
  TGI: > 100 µM
A549 NSCLC
  TGI: > 100 µM
ACHN renal
  TGI: > 100 µM
CCRF-CEM leukemia
  TGI: 27.3 µM
COLO 205 colon
  TGI: > 100 µM
DLD-1 colon
  TGI: > 100 µM
DMS 114 small cell lung
  TGI: > 100 µM
DMS 273 small cell lung
  TGI: > 100 µM
EKVX NSCLC
  TGI: > 100 µM
HCC-2998 colon
  TGI: > 100 µM
HCT-116 colon
  TGI: > 100 µM
HCT-15 colon
  TGI: > 100 µM
HL-60(TB) leukemia
  TGI: > 100 µM
HOP-18 NSCLC
  TGI: > 100 µM
HOP-92 NSCLC
  TGI: > 100 µM
HT29 colon
  TGI: > 100 µM
IGROV1 ovarian
  TGI: > 100 µM
K-562 leukemia
  TGI: > 100 µM
KM12 colon
  TGI: > 100 µM
KM20L2 colon
  TGI: > 100 µM
LOX IMVI melanoma
  TGI: > 100 µM
LXFL 529 NSCLC
  TGI: > 100 µM
M14 melanoma
  TGI: > 100 µM
M19-MEL melanoma
  TGI: > 100 µM
MALME-3M melanoma
  TGI: > 100 µM
MOLT-4 leukemia
  TGI: > 100 µM
NCI-H23 lung
  TGI: > 100 µM
NCI-H460 lung
  TGI: > 100 µM
NCI-H522 lung
  TGI: > 100 µM
OVCAR-3 ovarian
  TGI: > 100 µM
OVCAR-5 ovarian
  TGI: > 100 µM
OVCAR-8 ovarian
  TGI: > 100 µM
RPMI-8226 leukemia
  TGI: > 100 µM
RXF 393 renal
  TGI: > 100 µM
RXF-631 renal
  TGI: > 100 µM
SF-268 CNS
  TGI: > 100 µM
SF-295 CNS
  TGI: > 100 µM
SF-539 CNS
  TGI: > 100 µM
SK-MEL-2 melanoma
  TGI: > 100 µM
SK-MEL-28 melanoma
  TGI: > 100 µM
SK-MEL-5 melanoma
  TGI: > 100 µM
SK-OV-3 ovarian
  TGI: > 100 µM
SN12C renal
  TGI: > 100 µM
SNB-19 CNS
  TGI: > 100 µM
SNB-75 CNS
  TGI: > 100 µM
SNB-78 CNS
  TGI: > 100 µM
SR leukemia
  TGI: > 100 µM
SW-620 colon
  TGI: > 100 µM
TK-10 renal
  TGI: > 100 µM
U251 CNS
  TGI: > 100 µM
UACC-257 melanoma
  TGI: > 100 µM
UACC-62 melanoma
  TGI: > 100 µM
UO-31 renal
  TGI: > 100 µM
XF 498 CNS
  TGI: > 100 µM

## COC(=O)C(C(=O)C(=O)Nc1cccc([N+](=O)[O-])c1)c1nc2ccc([N+](=O)[O-])cc2[nH]c1=O (configuration not stated)
786-0 renal
  TGI: > 100 µM
A498 renal
  TGI: > 100 µM
A549 NSCLC
  TGI: > 100 µM
ACHN renal
  TGI: > 100 µM
CAKI-1 renal
  TGI: > 100 µM
CCRF-CEM leukemia
  TGI: > 100 µM
COLO 205 colon
  TGI: > 100 µM
DLD-1 colon
  TGI: > 100 µM
DMS 114 small cell lung
  TGI: > 100 µM
DMS 273 small cell lung
  TGI: > 100 µM
EKVX NSCLC
  TGI: > 100 µM
HCC-2998 colon
  TGI: > 100 µM
HCT-116 colon
  TGI: > 100 µM
HCT-15 colon
  TGI: > 100 µM
HL-60(TB) leukemia
  TGI: > 100 µM
HOP-18 NSCLC
  TGI: > 100 µM
HOP-62 NSCLC
  TGI: > 100 µM
HT29 colon
  TGI: > 100 µM
IGROV1 ovarian
  TGI: > 100 µM
K-562 leukemia
  TGI: > 100 µM
KM12 colon
  TGI: > 100 µM
KM20L2 colon
  TGI: > 100 µM
LOX IMVI melanoma
  TGI: > 100 µM
LXFL 529 NSCLC
  TGI: > 100 µM
M14 melanoma
  TGI: > 100 µM
M19-MEL melanoma
  TGI: > 100 µM
MALME-3M melanoma
  TGI: > 100 µM
MOLT-4 leukemia
  TGI: > 100 µM
NCI-H226 lung
  TGI: > 100 µM
NCI-H23 lung
  TGI: > 100 µM
NCI-H460 lung
  TGI: > 100 µM
NCI-H522 lung
  TGI: > 100 µM
OVCAR-3 ovarian
  TGI: > 100 µM
OVCAR-4 ovarian
  TGI: > 100 µM
OVCAR-5 ovarian
  TGI: > 100 µM
OVCAR-8 ovarian
  TGI: > 100 µM
RXF 393 renal
  TGI: > 100 µM
RXF-631 renal
  TGI: > 100 µM
SF-268 CNS
  TGI: > 100 µM
SF-295 CNS
  TGI: > 100 µM
SF-539 CNS
  TGI: > 100 µM
SK-MEL-2 melanoma
  TGI: > 100 µM
SK-MEL-28 melanoma
  TGI: > 100 µM
SK-MEL-5 melanoma
  TGI: > 100 µM
SK-OV-3 ovarian
  TGI: > 100 µM
SN12C renal
  TGI: > 100 µM
SNB-19 CNS
  TGI: > 100 µM
SNB-75 CNS
  TGI: > 100 µM
SNB-78 CNS
  TGI: > 100 µM
SR leukemia
  TGI: > 100 µM
SW-620 colon
  TGI: > 100 µM
TK-10 renal
  TGI: > 100 µM
U251 CNS
  TGI: > 100 µM
UACC-257 melanoma
  TGI: > 100 µM
UACC-62 melanoma
  TGI: > 100 µM
UO-31 renal
  TGI: > 100 µM
XF 498 CNS
  TGI: > 100 µM
